In the NIST ThermoML archive (doi:10.1016/j.jct.2016.05.008):
Numbers after ± are expanded uncertainties.

How the values were obtained:
[1] = Crystal; DTA
[2] = Molar enthalpy of transition or fusion; details: Crystal; DSC

Structure (SMILES)	Normal melting temperature [1] [°C]	Molar enthalpy of transition or fusion [2] [kcal/mol]
CCCCCCCCCCCCCCCC(=O)O [hexadecanoic acid]	62.00 ± 0.53	12.6 ± 0.55
CCCCCCCCCCCCCCCCCC [octadecane]	27.80 ± 0.53	14.7 ± 0.645
CCCCCCCCCCCCCC(=O)O [tetradecanoic acid]	54.00 ± 0.53	10.7 ± 0.478
